The values that follow come from ChEMBL document CHEMBL1201862, “PubChem BioAssay data set” (2004).

Activity calls are given as the source filed them. Cut-off read from the data, not from the text of the source, for most assays here: actives have a measured EC50 and inactives only a lower limit.

Experiment [1] can be described thus: cells. The class given is functional.
The subject of experiment [2] is Streptococcus. Put plainly: Group A Streptococcus viability loss, dose response, counter-screen for streptokinase expression inhibitor project, luminescence, BacTiterGlo (AID 1915).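 Note: potency for reduction of bacterial viability or growth.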 The class given is functional, organism-based.
Experiment [3] has as its target T1, Streptokinase A (Streptococcus pyogenes serotype M1, UniProt P10520).
T1 sequence (P10520 whole entry): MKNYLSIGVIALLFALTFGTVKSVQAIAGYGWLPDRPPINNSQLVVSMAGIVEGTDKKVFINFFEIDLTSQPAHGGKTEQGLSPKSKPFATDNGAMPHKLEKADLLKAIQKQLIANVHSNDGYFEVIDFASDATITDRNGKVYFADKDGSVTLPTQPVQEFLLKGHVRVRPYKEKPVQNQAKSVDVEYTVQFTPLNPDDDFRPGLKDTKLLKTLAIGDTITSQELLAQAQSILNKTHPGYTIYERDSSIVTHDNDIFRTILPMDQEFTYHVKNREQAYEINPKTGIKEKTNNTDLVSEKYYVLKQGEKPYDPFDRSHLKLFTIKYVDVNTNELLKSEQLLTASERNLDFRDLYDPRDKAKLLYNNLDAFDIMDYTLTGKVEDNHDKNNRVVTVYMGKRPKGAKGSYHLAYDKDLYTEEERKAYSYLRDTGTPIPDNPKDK
Put plainly: S. pyogenes streptokinase expression inhibitors, potency, dose response, plasminogen activation absorbance, OD405 (AID 1914).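 Note: secreted streptokinase activity via plasminogen activation per viability signal from cell pellet.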 It is filed as functional, Streptococcus pyogenes M1 GAS.

In experiment [4] the test system is Streptococcus sp. 'group A'. Put plainly: growth inhibition of control SK(-) GAS strain, dose response, counter-screen for streptokinase expression inhibitor project, luminescence, kanamycin, BacTiterGlo, confirmation (AID 1900). The class given is functional, organism-based.
A short description of experiment [5]: inhibitors of intracellular T. cruzi replication, confirmation, NIH3T3 host cells, beta-gal luminescence (AID 2044).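 Note: intracellular parasites grown in NIH/3T3 mouse fibroblasts as host cells; luminescent beta-galactosidase reporter signal from transgenic T. cruzi replicating inside host cells; inhibitors lower the luminescence signal.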 It is filed as functional, cell-based.
Experiment [6] is described as follows: cytotoxicity toward NIH3T3 fibroblasts, dose response, counter-screen, cell-based, ATP luminescence, mouse fibroblasts (AID 2010).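 Note: cells exposed to compound for about 90 hours before reading.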 It is filed as functional.
Experiment [7] deals with Large T antigen (Simian virus 40, UniProt P03070). It is filed as functional, Betapolyomavirus macacae.
Chain of Large T antigen (P03070 whole entry): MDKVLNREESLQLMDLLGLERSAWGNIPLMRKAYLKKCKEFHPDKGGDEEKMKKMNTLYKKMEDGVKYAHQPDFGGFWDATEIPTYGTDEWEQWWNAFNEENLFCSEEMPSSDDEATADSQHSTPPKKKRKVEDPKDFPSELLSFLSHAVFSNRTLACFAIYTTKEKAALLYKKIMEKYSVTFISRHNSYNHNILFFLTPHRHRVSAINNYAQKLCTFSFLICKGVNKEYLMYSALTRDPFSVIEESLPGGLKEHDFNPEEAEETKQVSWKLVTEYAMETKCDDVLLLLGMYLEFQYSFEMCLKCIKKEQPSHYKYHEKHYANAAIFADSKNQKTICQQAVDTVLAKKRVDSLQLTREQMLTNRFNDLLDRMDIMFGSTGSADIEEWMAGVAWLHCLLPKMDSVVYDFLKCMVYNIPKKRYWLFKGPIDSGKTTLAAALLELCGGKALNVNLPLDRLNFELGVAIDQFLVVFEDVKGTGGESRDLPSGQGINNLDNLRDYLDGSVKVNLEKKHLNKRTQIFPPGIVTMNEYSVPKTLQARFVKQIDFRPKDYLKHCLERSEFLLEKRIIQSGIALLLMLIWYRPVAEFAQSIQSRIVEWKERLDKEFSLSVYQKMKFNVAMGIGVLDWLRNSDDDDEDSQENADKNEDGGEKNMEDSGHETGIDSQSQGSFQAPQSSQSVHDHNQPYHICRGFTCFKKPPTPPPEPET
In experiment [8] the target is T2, Zinc finger protein mex-5 (Caenorhabditis elegans, UniProt Q9XUB2).
T2 sequence (Q9XUB2 whole entry): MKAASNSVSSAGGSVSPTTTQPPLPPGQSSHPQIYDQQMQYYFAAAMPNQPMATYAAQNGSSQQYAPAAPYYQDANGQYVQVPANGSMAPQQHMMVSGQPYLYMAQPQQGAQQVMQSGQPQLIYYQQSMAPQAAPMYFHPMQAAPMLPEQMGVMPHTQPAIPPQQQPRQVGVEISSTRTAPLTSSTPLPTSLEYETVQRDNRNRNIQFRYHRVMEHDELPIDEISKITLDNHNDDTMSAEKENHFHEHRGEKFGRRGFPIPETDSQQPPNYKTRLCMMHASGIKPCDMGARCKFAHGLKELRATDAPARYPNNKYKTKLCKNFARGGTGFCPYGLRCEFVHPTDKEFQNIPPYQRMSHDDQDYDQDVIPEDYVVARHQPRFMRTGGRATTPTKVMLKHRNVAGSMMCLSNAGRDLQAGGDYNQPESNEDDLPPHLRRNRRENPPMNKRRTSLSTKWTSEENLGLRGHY
Put plainly: MEX-5/TCR-2 RNA interaction inhibitors, dose response, biochemical, C. elegans, fluorescence polarization (AID 1960).

The target in experiment [9] is T3, RNA-binding protein pos-1 (Caenorhabditis elegans, UniProt G5EF15).
T3 sequence (G5EF15 whole entry): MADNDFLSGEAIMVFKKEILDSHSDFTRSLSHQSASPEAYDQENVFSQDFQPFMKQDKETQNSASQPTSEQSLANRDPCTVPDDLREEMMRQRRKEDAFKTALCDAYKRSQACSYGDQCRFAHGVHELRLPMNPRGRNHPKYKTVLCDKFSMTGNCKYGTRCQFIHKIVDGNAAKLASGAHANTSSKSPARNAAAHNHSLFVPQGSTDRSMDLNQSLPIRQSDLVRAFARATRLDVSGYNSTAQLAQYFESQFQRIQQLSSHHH
Description: inhibitors of POS-1/mex-3 RNA binding, dose response, biochemical, fluorescence polarization (AID 1964).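 Note: purified POS-1 fused to maltose binding protein made in E. coli; potency of compounds blocking POS-1 binding to fluorescent RNA.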

Experiment [10] deals with INS1. Put plainly: beta cell apoptosis inhibitors, cytokine rescue, dose response, luminescence, retest (AID 449756).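 Note: cell death triggered by IL-1 beta plus TNF-alpha plus IFN-gamma mixture; protective hits raise ATP signal compared with cytokine alone wells.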 The class given is functional, cell-based. Conditions: Rattus norvegicus.
The nature of experiment [11]: HEp-2 cell cytotoxicity, dose response, cytotoxicity control for RSV inhibitor project, HTS (AID 2410). The class given is functional. Conditions: human respiratory syncytial virus.

For the compound `CCOC(=O)c1cc(-c2csc(COc3ccccc3)n2)on1`, in experiment [1], the half-inhibitory concentration (IC50) was < 0.1 µM (active).

As to `CCN(CC)c1nc(C(F)(F)F)nc2c1nnn2Cc1ccccc1`, the EC50 in experiment [2] was > 150 µM (not active); in [3] it was 12.4 µM (active); in [4], 7.21 µM (active).

In the case of `O=C(Nc1nnc(C2=COCCO2)o1)c1cccc(C(F)(F)F)c1`, the results for the 50% effective concentration (EC50) in experiment [2] and in experiment [4] were 7.55 µM (active) and 2.96 µM (active), respectively. Further, the half-maximal inhibitory concentration (IC50) in experiment [1] is 4.89 µM (active).

`Cc1ccc(C(=O)NNC2=Nc3cccc4cccc2c34)cc1`: the concentration giving a half-maximal response (EC50) in experiment [2] is > 150 µM (not active); in experiment [3], > 150 µM (not active); in experiment [4], 3.26 µM (active).

Turning to `O=C(CSc1nnc(CNC(=O)c2c(F)cccc2F)o1)NCCc1ccccc1`, the 50% effective concentration (EC50) in experiment [2], in experiment [3] and in experiment [4] was > 150 µM (not active) in each case.

For `COc1ccc2nc(C3CCCCC3)nc(C3CCCCC3)c2c1`, the results for the concentration giving a half-maximal response (EC50) in experiment [2], in experiment [3] and in experiment [4] were 5.71 µM (active), > 150 µM (not active) and 2.8 µM (active), respectively.

Take `CCOC(=O)c1sc2nccc(N(C)C)c2c1N=CNOCc1c(F)cccc1Cl`: the EC50 in experiment [2] was > 150 µM (not active); in experiment [3], 27 µM (active); in experiment [5] it was 1.26 µM (active); in experiment [6], > 60 µM (not active); in [4], 11.6 µM (active).

Take `CCCCCCNC(=O)N[C@H](C(=O)NCCC[C@H]1CN2C(=NC[C@H]2C)N1CCC(c1ccccc1)c1ccccc1)C(C)O` (stereo partly drawn): the half-maximal inhibitory concentration (IC50) in experiment [7] was > 100 µM (active).

For the compound `CCOC(=O)COc1ccc2c(c1)c(C(=O)OCC)c(C)n2CC`, the IC50 in [1] was 5.46 µM (active).

For `CCOC(=O)c1c(NC(=O)CC2Nc3ccccc3NC2=O)sc(C)c1C` (stereo not drawn), the EC50 in experiment [8] and in experiment [9] was > 300 µM (not active) in each case.

Regarding `Fc1ccc(N2CCN(Cc3c[nH]nc3-c3ccccc3)CC2)cc1`, the 50% effective concentration (EC50) in experiment [2], in experiment [3] and in experiment [4] was > 150 µM (not active) each time.

For the compound `COC(=O)c1[nH]c2ccccc2c1/C=C1\C(=O)NC(=O)N(c2ccc(OC)cc2)C1=O`, the IC50 in [7] was 89 µM (active).

With `O=C1NC(=O)N(Cc2ccccc2Cl)C(=O)/C1=C/Nc1ccc(F)cc1`, the EC50 in [8] and in experiment [9] was > 300 µM (not active) in each case.

In the case of `COC(=O)c1cc(C(=O)OC)cc(-n2c(C)cc(C(=O)CC#N)c2C)c1`, the EC50 in [8] and in experiment [9] was > 300 µM (not active) throughout.

Turning to `O=C(Nc1ccc2c(c1)CCC2)c1ccc(Br)o1`, the half-inhibitory concentration (IC50) in experiment [1] was > 50 µM (active).

`N#CC1=C(N)Oc2[nH]nc(-c3cccnc3)c2C1c1ccc([N+](=O)[O-])o1` (stereo not drawn): the IC50 in [1] was 9.19 µM (active).

Regarding `N=c1c(C(=O)NC2CCCCC2)cc2c(=O)n3ccccc3nc2n1Cc1cccnc1`, the EC50 in [8] was 12.7 µM (active); in [9] it was > 300 µM (not active).

Regarding `Cc1ccc(S(=O)(=O)CCSc2nc(C)cc(C(F)(F)F)c2C#N)cc1`, the values for the concentration for a half-maximal effect (EC50) in experiment [8] and in experiment [9] were 80.8 µM (active) and > 300 µM (not active), respectively.

Regarding `CCn1cc(C(=O)O)c(=O)c2cc(F)c(N/N=C/c3ccccc3[N+](=O)[O-])cc21`, in experiment [10], the AC50 is 10.1 µM (active). Besides, the EC50 was 13.4 µM (active) in [2], > 150 µM (not active) in experiment [3] and 4.31 µM (active) in experiment [4].

On to `C/C(=N\Nc1ccc(Cl)c(Cl)c1)c1ccc(-n2ccnc2)cc1`, for which the EC50 in experiment [2] is 11.9 µM (active); in experiment [3] it was 17.2 µM (active); in experiment [4] it was 3.05 µM (active). In addition, the CC50 in experiment [11] is 35.9 µM (active).

`Oc1ccc2[nH]ccc2c1`: in [7], the IC50 is 80.2 µM (active).
